This passage reports relative viability results from the supplement of paper PMC10307832.

Common to all, as to assay: relative viability (nuclei count vs DMSO), 5 days (fraction); higher = more cells survive
Compound in the assay “BI-2536 + Dasatinib”: CC[C@@H]1C(=O)N(C)c2cnc(Nc3ccc(C(=O)NC4CCN(C)CC4)cc3OC)nc2N1C1CCCC1 [BI-2536] + Cc1nc(Nc2ncc(C(=O)Nc3c(C)cccc3Cl)s2)cc(N2CCN(CCO)CC2)n1 [Dasatinib] (partner 0.075 µM)
An outline of the steps: (§1)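 Medians of duplicate plates are given as relative viability. That measure is the nuclei count in treated wells divided by the count in vehicle wells. Counts were taken on 4× images of lung cancer cell lines in 1536-well plates, 5 days after pin-tool dosing the day after seeding with one drug alone or a fixed anchor-drug dose plus five library-drug doses (not always all listed) in √10 steps.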

Compound in the assay “BI-2536 + Vorinostat”: CC[C@@H]1C(=O)N(C)c2cnc(Nc3ccc(C(=O)NC4CCN(C)CC4)cc3OC)nc2N1C1CCCC1 [BI-2536] + O=C(CCCCCCC(=O)Nc1ccccc1)NO [Vorinostat] (partner 1 µM)
An outline of the steps: as §1

Compound in assay [1]: CC1CC(=O)N(C2=CN=C(N=C2N1C3CCCC3)NC4=C(C=C(C=C4)C(=O)NC5CCN(CC5)C)OC)C [NPK76-II-72-1] + O=C(CCCCCCC(=O)Nc1ccccc1)NO [Vorinostat] (partner 1 µM)
An outline of the steps: as §1

Compound in the assay “BI-2536 + Decitabine”: CC[C@@H]1C(=O)N(C)c2cnc(Nc3ccc(C(=O)NC4CCN(C)CC4)cc3OC)nc2N1C1CCCC1 [BI-2536] + Nc1ncn([C@H]2C[C@H](O)[C@@H](CO)O2)c(=O)n1 [Decitabine] (partner 2 µM)
An outline of the steps: as §1

In the case of NCI-H1437, the relative viability in the assay with BI-2536 + Dasatinib (first compound 0.01 µM) was 0.318; in the assay with BI-2536 + Dasatinib (first compound 0.03162 µM), 0.365; in the assay with BI-2536 + Dasatinib (first compound 0.1 µM) it was 0.247; with BI-2536 + Dasatinib (first compound 0.3162 µM) it was 0.173; with BI-2536 + Dasatinib (first compound 1 µM), 0.108; with BI-2536 + Vorinostat (first compound 0.01 µM), 0.809. The relative viability in the assay with BI-2536 + Vorinostat (first compound 0.03162 µM) came to 0.751; with BI-2536 + Vorinostat (first compound 0.1 µM), 0.394; in the assay with BI-2536 + Vorinostat (first compound 0.3162 µM), 0.301; in the assay with BI-2536 + Vorinostat (first compound 1 µM), 0.312; in assay [1] (first compound 0.01 µM) it was 0.779; in assay [1] (first compound 0.03162 µM) it was 0.907. Also, the relative viability in assay [1] (first compound 0.1 µM) is 0.736; in assay [1] (first compound 0.3162 µM), 0.748; in assay [1] (first compound 1 µM), 0.894; with BI-2536 + Decitabine (first compound 0.01 µM), 0.572; with BI-2536 + Decitabine (first compound 0.03162 µM) it was 0.573; with BI-2536 + Decitabine (first compound 0.1 µM), 0.335. For the same cell line, the results for the relative viability with BI-2536 + Decitabine (first compound 0.3162 µM) and with BI-2536 + Decitabine (first compound 1 µM) were 0.229 and 0.197, respectively.

NCI-H460: the relative viability in the assay with BI-2536 + Dasatinib (first compound 0.01 µM) came to 0.483; with BI-2536 + Dasatinib (first compound 0.03162 µM), 0.635; with BI-2536 + Dasatinib (first compound 0.1 µM), 0.368; with BI-2536 + Dasatinib (first compound 0.3162 µM), 0.0145; with BI-2536 + Dasatinib (first compound 1 µM) it was 0.0151; in the assay with BI-2536 + Vorinostat (first compound 0.01 µM) it was 0.735. The relative viability stood at 1.07 in the assay with BI-2536 + Vorinostat (first compound 0.03162 µM); 0.119 in the assay with BI-2536 + Vorinostat (first compound 0.1 µM); 0.0148 with BI-2536 + Vorinostat (first compound 0.3162 µM); 0.014 with BI-2536 + Vorinostat (first compound 1 µM); 0.684 in assay [1] (first compound 0.01 µM); 0.799 in assay [1] (first compound 0.03162 µM). Besides, the relative viability worked out at 0.703 in assay [1] (first compound 0.1 µM); 0.748 in assay [1] (first compound 0.3162 µM); 0.636 in assay [1] (first compound 1 µM); 0.596 with BI-2536 + Decitabine (first compound 0.01 µM); 0.486 with BI-2536 + Decitabine (first compound 0.03162 µM); 0.114 with BI-2536 + Decitabine (first compound 0.1 µM). The relative viability was found to be 0.0205 with BI-2536 + Decitabine (first compound 0.3162 µM) and 0.0215 in the assay with BI-2536 + Decitabine (first compound 1 µM).

On to NCI-H1666, for which the relative viability with BI-2536 + Dasatinib (first compound 0.01 µM) came out at 0.765; with BI-2536 + Dasatinib (first compound 0.03162 µM) it was 0.653; in the assay with BI-2536 + Dasatinib (first compound 0.1 µM) it was 0.716; in the assay with BI-2536 + Dasatinib (first compound 0.3162 µM) it was 0.313; with BI-2536 + Dasatinib (first compound 1 µM), 0.267; with BI-2536 + Vorinostat (first compound 0.01 µM) it was 0.984. Also, the relative viability is 1.03 with BI-2536 + Vorinostat (first compound 0.03162 µM); 1.03 in the assay with BI-2536 + Vorinostat (first compound 0.1 µM); 0.504 in the assay with BI-2536 + Vorinostat (first compound 0.3162 µM); 0.49 with BI-2536 + Vorinostat (first compound 1 µM); 1.04 in assay [1] (first compound 0.01 µM); 0.996 in assay [1] (first compound 0.03162 µM). In addition, the relative viability in assay [1] (first compound 0.1 µM) was found to be 0.983; in assay [1] (first compound 0.3162 µM) it was 0.955; in assay [1] (first compound 1 µM) it was 1.17; in the assay with BI-2536 + Decitabine (first compound 0.01 µM) it was 0.716; in the assay with BI-2536 + Decitabine (first compound 0.03162 µM) it was 0.68; with BI-2536 + Decitabine (first compound 0.1 µM), 0.625. For the same cell line, the relative viability worked out at 0.411 with BI-2536 + Decitabine (first compound 0.3162 µM) and 0.378 in the assay with BI-2536 + Decitabine (first compound 1 µM).

Turning to NCI-H1651, the relative viability amounted to 0.138 with BI-2536 + Dasatinib (first compound 0.01 µM); 0.376 with BI-2536 + Dasatinib (first compound 0.03162 µM); 0.075 in the assay with BI-2536 + Dasatinib (first compound 0.1 µM); 0.1 with BI-2536 + Dasatinib (first compound 0.3162 µM); 0.0509 with BI-2536 + Dasatinib (first compound 1 µM); 0.492 in the assay with BI-2536 + Vorinostat (first compound 0.01 µM). The relative viability is 0.553 with BI-2536 + Vorinostat (first compound 0.03162 µM); 0.328 with BI-2536 + Vorinostat (first compound 0.1 µM); 0.123 in the assay with BI-2536 + Vorinostat (first compound 0.3162 µM); 0.0939 in the assay with BI-2536 + Vorinostat (first compound 1 µM); 0.57 in assay [1] (first compound 0.01 µM); 0.565 in assay [1] (first compound 0.03162 µM). The relative viability in assay [1] (first compound 0.1 µM) is 0.634; in assay [1] (first compound 0.3162 µM), 0.557; in assay [1] (first compound 1 µM), 0.607; in the assay with BI-2536 + Decitabine (first compound 0.01 µM), 0.592; with BI-2536 + Decitabine (first compound 0.03162 µM), 0.627; in the assay with BI-2536 + Decitabine (first compound 0.1 µM) it was 0.495. Further, the results for the relative viability with BI-2536 + Decitabine (first compound 0.3162 µM) and with BI-2536 + Decitabine (first compound 1 µM) were 0.12 and 0.0817, respectively.

For NCI-H1755, the relative viability stood at 0.452 in the assay with BI-2536 + Dasatinib (first compound 0.01 µM); 0.391 in the assay with BI-2536 + Dasatinib (first compound 0.03162 µM); 0.271 in the assay with BI-2536 + Dasatinib (first compound 0.1 µM); 0.195 with BI-2536 + Dasatinib (first compound 0.3162 µM); 0.198 in the assay with BI-2536 + Dasatinib (first compound 1 µM); 0.833 with BI-2536 + Vorinostat (first compound 0.01 µM). Further, the relative viability with BI-2536 + Vorinostat (first compound 0.03162 µM) was determined as 0.595; with BI-2536 + Vorinostat (first compound 0.1 µM), 0.426; with BI-2536 + Vorinostat (first compound 0.3162 µM), 0.34; with BI-2536 + Vorinostat (first compound 1 µM) it was 0.329; in assay [1] (first compound 0.01 µM), 0.89; in assay [1] (first compound 0.03162 µM), 0.76. For the same cell line, the relative viability came out at 0.928 in assay [1] (first compound 0.1 µM); 0.82 in assay [1] (first compound 0.3162 µM); 0.782 in assay [1] (first compound 1 µM); 0.689 in the assay with BI-2536 + Decitabine (first compound 0.01 µM); 0.716 in the assay with BI-2536 + Decitabine (first compound 0.03162 µM); 0.642 in the assay with BI-2536 + Decitabine (first compound 0.1 µM). Besides, the relative viability in the assay with BI-2536 + Decitabine (first compound 0.3162 µM) worked out at 0.347; with BI-2536 + Decitabine (first compound 1 µM), 0.379.

NCI-H661: the relative viability with BI-2536 + Dasatinib (first compound 0.01 µM) worked out at 0.851; with BI-2536 + Dasatinib (first compound 0.03162 µM), 0.307; with BI-2536 + Dasatinib (first compound 1 µM), 0.367; in the assay with BI-2536 + Vorinostat (first compound 0.01 µM) it was 0.714; with BI-2536 + Vorinostat (first compound 0.03162 µM), 0.323; with BI-2536 + Vorinostat (first compound 0.1 µM), 0.292. In addition, the relative viability with BI-2536 + Vorinostat (first compound 0.3162 µM) came out at 0.302; with BI-2536 + Vorinostat (first compound 1 µM) it was 0.306; in assay [1] (first compound 0.01 µM), 0.772; in assay [1] (first compound 0.03162 µM), 0.785; in assay [1] (first compound 0.1 µM), 0.755; in assay [1] (first compound 0.3162 µM), 0.735. Also, the relative viability in assay [1] (first compound 1 µM) came to 0.795; with BI-2536 + Decitabine (first compound 0.01 µM), 0.534; in the assay with BI-2536 + Decitabine (first compound 0.03162 µM), 0.424; in the assay with BI-2536 + Decitabine (first compound 0.1 µM), 0.278; with BI-2536 + Decitabine (first compound 0.3162 µM), 0.253; in the assay with BI-2536 + Decitabine (first compound 1 µM), 0.265.

On to HARA, for which the relative viability with BI-2536 + Dasatinib (first compound 0.01 µM) was 0.265; with BI-2536 + Dasatinib (first compound 0.03162 µM) it was 0.287; in the assay with BI-2536 + Dasatinib (first compound 0.1 µM), 0.328; with BI-2536 + Dasatinib (first compound 0.3162 µM) it was 0.058; with BI-2536 + Dasatinib (first compound 1 µM), 0.0777; with BI-2536 + Vorinostat (first compound 0.01 µM) it was 0.626. In addition, the relative viability came out at 0.511 in the assay with BI-2536 + Vorinostat (first compound 0.03162 µM); 0.422 with BI-2536 + Vorinostat (first compound 0.1 µM); 0.0897 in the assay with BI-2536 + Vorinostat (first compound 0.3162 µM); 0.108 with BI-2536 + Vorinostat (first compound 1 µM); 0.493 in assay [1] (first compound 0.01 µM); 0.668 in assay [1] (first compound 0.03162 µM). Also, the relative viability in assay [1] (first compound 0.1 µM) was 0.564; in assay [1] (first compound 0.3162 µM) it was 0.485; in assay [1] (first compound 1 µM) it was 0.603; with BI-2536 + Decitabine (first compound 0.01 µM), 0.529; with BI-2536 + Decitabine (first compound 0.03162 µM), 0.521; with BI-2536 + Decitabine (first compound 0.1 µM), 0.433. For the same cell line, the relative viability with BI-2536 + Decitabine (first compound 0.3162 µM) was 0.162; in the assay with BI-2536 + Decitabine (first compound 1 µM) it was 0.191.
